Measured values published in US20250309306A1, “Cationic Viologen Derivatives and Use Thereof in Redox Flow Batteries” (priority 2024, published 2025).

Key:
Assay type in all cases: physicochemical
[1] = Reaction rate (k°)
[2] = Diffusion coefficient by Levic plot, rotating disk electrode
Experimental: The diffusion coefficient of molecules was measured using Levic plot, obtained using a rotating disk electrode (RDE) setup according to standard procedures.

[3] = Water solubility by quantitative NMR; settings: for solubility: water (D2O), water, thermodynamic from solid
Experimental: The compound to be tested was dissolved in 100 μl D2O until saturation was reached. Any undissolved compound was filtered off and the filtrate was combined with a standard solution containing a known amount of a calibration compound as an internal reference. The sample is investigated using 1H NMR. […] The solubility of the compound to be tested was then calculated from a relative concentration determination based on the known calibration compound concentration.

[4] = Pulse voltammetry (SWV/DPV), three-electrode cell: redox potential of first reduction
[5] = Cyclic voltammetry, repeated charging-discharging cycles (integrated area over 100 scans)
[6] = Table 2, Ag/AgCl reference, +0.200 V offset applied, glassy carbon working electrode
[7] = Table 3, comparison of transquat, diquat and annulated diquat

COc1cc[n+]2c3c1CC[n+]1ccc(OC)c(c1-3)CC2.[Cl-].[Cl-]
Reaction Rate (k°, in cm/s) ([1]; Table 2): 0.00414 cm/s
Diffusion coefficient (D, in cm^2s^−1) ([2]; Table 2): 2.5 × 10^−6 cm^2s^−1
Solubility in water (M, at 20°C) ([3]; Table 2, at 20°C): Low
Redox Potential (V vs SHE) [4, 6]: −0.80 V vs SHE
Capacity over 100 cycles ([5]; Table 2): 0.80

[Br-].[Br-].c1cc2c3[n+](c1)CC[n+]1cccc(c1-3)CC2 [reference compound]
Reaction Rate (k°, in cm/s) ([1]; Table 3): 0.00768 cm/s
Diffusion coefficient (D, in cm^2s^−1) ([2]; Table 3): 9.87 × 10^−6 cm^2s^−1
solubility ([3]; Table 3, at 20° C.): > 1500 mM
Redox Potential (V vs SHE) [4, 7]: −0.42 V vs SHE
Capacity over 100 cycles ([5]; Table 3): 0.98

CCOc1cc2c3[n+](c1)CCc1cc(OCC)c[n+](c1-3)CC2.Cl
Reaction Rate (k°, in cm/s) ([1]; Table 2): 0.00615 cm/s
Diffusion coefficient (D, in cm^2s^−1) ([2]; Table 2): 1.41 × 10^−5 cm^2s^−1
solubility ([3]; Table 2, at 20°C): > 1500 mM
Redox Potential (V vs SHE) [4, 6]: −0.80 V vs SHE
Capacity over 100 cycles ([5]; Table 2): 0.99

[Cl-].[Cl-].c1cc2c3[n+](c1)CCc1ccc[n+](c1-3)CC2
Reaction Rate (k°, in cm/s) ([1]; Table 2): 0.00764 cm/s
Reaction Rate (k°, in cm/s) ([1]; Table 3): 0.00764 cm/s
Diffusion coefficient (D, in cm^2s^−1) ([2]; Table 2): 1.62 × 10^−5 cm^2s^−1
Diffusion coefficient (D, in cm^2s^−1) ([2]; Table 3): 1.62 × 10^−5 cm^2s^−1
Solubility in water (M, at 20° C.) ([3]; Table 3, at 20° C.): >1500 mM
solubility ([3]; Table 2, at 20°C): > 1500 mM
Redox Potential (V vs SHE) [4, 6]: −0.48 V vs SHE
Redox Potential (V vs SHE) [4, 7]: −0.48 V vs SHE
Capacity over 100 cycles ([5]; Table 2): 0.98
Capacity over 100 cycles ([5]; Table 3): 0.98

[Cl-].[Cl-].c1cc2c3[n+](c1)CCCc1ccc[n+](c1-3)CCC2
Reaction Rate (k°, in cm/s) ([1]; Table 2): 0.0194 cm/s
Diffusion coefficient (D, in cm^2s^−1) ([2]; Table 2): 1.63 × 10^−5 cm^2s^−1
solubility ([3]; Table 2, at 20°C): > 1500 mM
Redox Potential (V vs SHE) [4, 6]: −0.64 V vs SHE
Capacity over 100 cycles ([5]; Table 2): 0.98

Cc1cc2c3[n+](c1)CCc1cc(C)c[n+](c1-3)CC2.[Cl-].[Cl-]
Reaction Rate (k°, in cm/s) ([1]; Table 2): 0.016 cm/s
Diffusion coefficient (D, in cm^2s^−1) ([2]; Table 2): 6.45 × 10^−6 cm^2s^−1
solubility ([3]; Table 2, at 20°C): ~1000 mM
Redox Potential (V vs SHE) [4, 6]: −0.59 V vs SHE
Capacity over 100 cycles ([5]; Table 2): 0.95
